Measured values: ChEMBL document CHEMBL4665764, “Synthesis and Biological Evaluation of Celastrol Derivatives as Potential Immunosuppressive Agents” (J Nat Prod, 2020)

Key:
[1] = Selectivity index, ratio of CC50 for cytotoxicity against BALB/c mouse T cell to IC50 for antiproliferative activity against Con A-induced BALB/c mouse T cell; design: species or system T cell line
[2] = Antiproliferative activity against Con A-induced BALB/c mouse T cell after 48 hrs by CCK8 assay; assay type: functional, tissue-based, T cell line
[3] = Cytotoxicity against BALB/c mouse T cell assessed as reduction in cell viability after 48 hrs by CCK8 assay; assay type: tissue-based, T cell line; conditions: BALB/c mouse T cells

Row | Structure (SMILES) | Ratio CC50/IC50 [1] | IC50 [2] [nM] | CC50 at 48 h [3] [nM]
1 | CC1=C(O)C(=O)C=C2C1=CC=C1[C@@]2(C)CC[C@@]2(C)[C@@H]3C[C@](C)(C(=O)O)CC[C@]3(C)CC[C@]12C [CELASTROL] | 1.5 | 83 | 100
2 | COC(=O)[C@H](Cc1ccc(O)cc1)NC(=O)[C@]1(C)CC[C@]2(C)CC[C@]3(C)C4=CC=C5C(=CC(=O)C(O)=C5C)[C@]4(C)CC[C@@]3(C)[C@@H]2C1 | 6.9 | 205 | 1400
3 | CC1=C(O)C(=O)C=C2C1=CC=C1[C@@]2(C)CC[C@@]2(C)[C@@H]3C[C@](C)(C(=O)OCCBr)CC[C@]3(C)CC[C@]12C | 1.6 | 721 | 1100
4 | CC1=C(O)C(=O)C=C2C1=CC=C1[C@@]2(C)CC[C@@]2(C)[C@@H]3C[C@](C)(C(=O)NC(C)C)CC[C@]3(C)CC[C@]12C | 6.9 | 83 | 800
5 | CC1=C(O)C(=O)C=C2C1=CC=C1[C@@]2(C)CC[C@@]2(C)[C@@H]3C[C@](C)(C(=O)NCc4ccccc4)CC[C@]3(C)CC[C@]12C | 2.1 | 362 | 800
6 | C#CCOC(=O)[C@]1(C)CC[C@]2(C)CC[C@]3(C)C4=C[C@@H](c5c[nH]c6ccc(Br)cc56)c5c(cc(OC(C)=O)c(OC(C)=O)c5C)[C@]4(C)CC[C@@]3(C)[C@@H]2C1 | – | ≥ 10000 | ≥ 10000
7 | C#CCOC(=O)[C@]1(C)CC[C@]2(C)CC[C@]3(C)C4=C[C@@H](c5c[nH]c6cc(OC)ccc56)c5c(cc(OC(C)=O)c(OC(C)=O)c5C)[C@]4(C)CC[C@@]3(C)[C@@H]2C1 | – | ≥ 10000 | 3000
8 | CC1=C(O)C(=O)C=C2C1=CC=C1[C@@]2(C)CC[C@@]2(C)[C@@H]3C[C@](C)(C(=O)OCc4ccccc4C)CC[C@]3(C)CC[C@]12C | 1.6 | 1040 | 1700
9 | CCCCOC(=O)[C@]1(C)CC[C@]2(C)CC[C@]3(C)C4=CC=C5C(=CC(=O)C(O)=C5C)[C@]4(C)CC[C@@]3(C)[C@@H]2C1 | 1.2 | 739 | 900
10 | CC1=C(O)C(=O)C=C2C1=CC=C1[C@@]2(C)CC[C@@]2(C)[C@@H]3C[C@](C)(C(=O)OCc4ccccc4Br)CC[C@]3(C)CC[C@]12C | 1.1 | 1550 | 1800
11 | C#CCOC(=O)[C@]1(C)CC[C@]2(C)CC[C@]3(C)C4=C[C@@H](c5c[nH]c6ccccc56)c5c(cc(OC(C)=O)c(OC(C)=O)c5C)[C@]4(C)CC[C@@]3(C)[C@@H]2C1 | – | ≥ 10000 | ≥ 10000
12 | CC1=C(O)C(=O)C=C2C1=CC=C1[C@@]2(C)CC[C@@]2(C)[C@@H]3C[C@](C)(C(=O)OCc4ccccc4)CC[C@]3(C)CC[C@]12C | 1 | 1060 | 1100
13 | C#CCNC(=O)[C@]1(C)CC[C@]2(C)CC[C@]3(C)C4=CC=C5C(=CC(=O)C(O)=C5C)[C@]4(C)CC[C@@]3(C)[C@@H]2C1 | 16.4 | 112 | 1400
14 | COC(=O)[C@]1(C)CC[C@]2(C)CC[C@]3(C)C4=CC=C5C(=CC(=O)C(O)=C5C)[C@]4(C)CC[C@@]3(C)[C@@H]2C1 [PRISTIMERIN] | 2 | 1200 | 2400
15 | CC1=C(O)C(=O)C=C2C1=CC=C1[C@@]2(C)CC[C@@]2(C)[C@@H]3C[C@](C)(C(=O)NCCN(C)C)CC[C@]3(C)CC[C@]12C | 5.5 | 225 | 1200
16 | CC1=C(O)C(=O)C=C2C1=CC=C1[C@@]2(C)CC[C@@]2(C)[C@@H]3C[C@](C)(C(=O)OCc4ccc(F)cc4)CC[C@]3(C)CC[C@]12C | 1.4 | 1460 | 2000
17 | CC1=C(O)C(=O)C=C2C1=CC=C1[C@@]2(C)CC[C@@]2(C)[C@@H]3C[C@](C)(C(=O)OCCCl)CC[C@]3(C)CC[C@]12C | 1.4 | 771 | 1100
18 | CCOC(=O)[C@]1(C)CC[C@]2(C)CC[C@]3(C)C4=CC=C5C(=CC(=O)C(O)=C5C)[C@]4(C)CC[C@@]3(C)[C@@H]2C1 | 1.3 | 820 | 1400
19 | COCCCOC(=O)[C@]1(C)CC[C@]2(C)CC[C@]3(C)C4=CC=C5C(=CC(=O)C(O)=C5C)[C@]4(C)CC[C@@]3(C)[C@@H]2C1 | 1.7 | 994 | 1700

Row | Structure (SMILES) | Ratio CC50/IC50 [1] | IC50 [2] [nM] | CC50 at 48 h [3] [nM]
20 | C#CCOC(=O)[C@]1(C)CC[C@]2(C)CC[C@]3(C)C4=C[C@@H](c5c[nH]c6ccc(F)cc56)c5c(cc(OC(C)=O)c(OC(C)=O)c5C)[C@]4(C)CC[C@@]3(C)[C@@H]2C1 | – | ≥ 10000 | 5600
21 | C#CCOC(=O)[C@]1(C)CC[C@]2(C)CC[C@]3(C)C4=CC=C5C(=CC(=O)C(O)=C5C)[C@]4(C)CC[C@@]3(C)[C@@H]2C1 | 1.3 | 1120 | 1400
22 | CC1=C(O)C(=O)C=C2C1=CC=C1[C@@]2(C)CC[C@@]2(C)[C@@H]3C[C@](C)(C(=O)OCc4ccc(C(F)(F)F)cc4)CC[C@]3(C)CC[C@]12C | 1.4 | 4870 | 6700
23 | C#CCOC(=O)[C@]1(C)CC[C@]2(C)CC[C@]3(C)C4=C[C@@H](c5c[nH]c6ccc(C)cc56)c5c(cc(OC(C)=O)c(OC(C)=O)c5C)[C@]4(C)CC[C@@]3(C)[C@@H]2C1 | – | ≥ 10000 | ≥ 10000
24 | C#CCOC(=O)[C@]1(C)CC[C@]2(C)CC[C@]3(C)C4=C[C@@H](c5c[nH]c6cc(Cl)ccc56)c5c(cc(OC(C)=O)c(OC(C)=O)c5C)[C@]4(C)CC[C@@]3(C)[C@@H]2C1 | – | ≥ 10000 | 4100
25 | COCCOC(=O)[C@]1(C)CC[C@]2(C)CC[C@]3(C)C4=CC=C5C(=CC(=O)C(O)=C5C)[C@]4(C)CC[C@@]3(C)[C@@H]2C1 | 2.8 | 454 | 1300
26 | C#CCOC(=O)[C@]1(C)CC[C@]2(C)CC[C@]3(C)C4=C[C@@H](c5c[nH]c6ccc(OC)cc56)c5c(cc(OC(C)=O)c(OC(C)=O)c5C)[C@]4(C)CC[C@@]3(C)[C@@H]2C1 | – | ≥ 10000 | ≥ 10000
27 | CC1=C(O)C(=O)C=C2C1=CC=C1[C@@]2(C)CC[C@@]2(C)[C@@H]3C[C@](C)(C(=O)On4nnc5ccccc54)CC[C@]3(C)CC[C@]12C | 8.1 | 1880 | 15100
28 | CCCOC(=O)[C@]1(C)CC[C@]2(C)CC[C@]3(C)C4=CC=C5C(=CC(=O)C(O)=C5C)[C@]4(C)CC[C@@]3(C)[C@@H]2C1 | 1.3 | 924 | 1200
29 | C#CCOC(=O)[C@]1(C)CC[C@]2(C)CC[C@]3(C)C4=C[C@@H](c5c[nH]c6ccc(Cl)cc56)c5c(cc(OC(C)=O)c(OC(C)=O)c5C)[C@]4(C)CC[C@@]3(C)[C@@H]2C1 | – | ≥ 10000 | ≥ 10000
30 | CC1=C(O)C(=O)C=C2C1=CC=C1[C@@]2(C)CC[C@@]2(C)[C@@H]3C[C@](C)(C(=O)N4CCCC4)CC[C@]3(C)CC[C@]12C | 3.4 | 323 | 1900
31 | CCCNC(=O)[C@]1(C)CC[C@]2(C)CC[C@]3(C)C4=CC=C5C(=CC(=O)C(O)=C5C)[C@]4(C)CC[C@@]3(C)[C@@H]2C1 | 16.5 | 64 | 1100
32 | CC1=C(O)C(=O)C=C2C1=CC=C1[C@@]2(C)CC[C@@]2(C)[C@@H]3C[C@](C)(C(=O)OCc4cccc(Br)c4)CC[C@]3(C)CC[C@]12C | 1.7 | 1070 | 1800
33 | CC1=C(O)C(=O)C=C2C1=CC=C1[C@@]2(C)CC[C@@]2(C)[C@@H]3C[C@](C)(C(=O)OCC4CCCCC4)CC[C@]3(C)CC[C@]12C | 1 | 1260 | 1300
34 | C#CCOC(=O)[C@]1(C)CC[C@]2(C)CC[C@]3(C)C4=C[C@@H](c5c[nH]c6c(C)cccc56)c5c(cc(OC(C)=O)c(OC(C)=O)c5C)[C@]4(C)CC[C@@]3(C)[C@@H]2C1 | – | ≥ 10000 | ≥ 10000
35 | CC1=C(O)C(=O)C=C2C1=CC=C1[C@@]2(C)CC[C@@]2(C)[C@@H]3C[C@](C)(C(=O)NCc4ccccc4C)CC[C@]3(C)CC[C@]12C | 3.6 | 312 | 1100
36 | C#CCOC(=O)[C@]1(C)CC[C@]2(C)CC[C@]3(C)C4=C[C@@H](c5c[nH]c6cc(F)ccc56)c5c(cc(OC(C)=O)c(OC(C)=O)c5C)[C@]4(C)CC[C@@]3(C)[C@@H]2C1 | – | ≥ 10000 | ≥ 10000
37 | CC1=C(O)C(=O)C=C2C1=CC=C1[C@@]2(C)CC[C@@]2(C)[C@@H]3C[C@](C)(C(=O)OCc4cccc(C)c4)CC[C@]3(C)CC[C@]12C | – | 1600 | 1900
